One assay addresses T1, SHP-2 (Homo sapiens, UniProt Q06124).
T1 construct: using the catalytic core of a human recombinant PTP as the enzyme
T1 sequence (Q06124 247-517 limits assumed): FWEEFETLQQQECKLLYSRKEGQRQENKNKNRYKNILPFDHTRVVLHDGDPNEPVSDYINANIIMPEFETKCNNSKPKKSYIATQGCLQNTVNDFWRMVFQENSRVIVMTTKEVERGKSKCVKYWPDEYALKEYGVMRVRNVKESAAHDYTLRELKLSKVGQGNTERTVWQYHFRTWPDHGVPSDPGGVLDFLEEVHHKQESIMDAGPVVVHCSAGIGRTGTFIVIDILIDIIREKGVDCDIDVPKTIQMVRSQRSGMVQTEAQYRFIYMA
Kind of assay: PTP Enzyme Assay (DiFMUP), SHP-2. Type of assay: biochemical. The note with it: 20 λM DiFMUP; read-out: IC50 value in respect of SHP-2. The method, then:
(§1) The PTP Enzyme Assay aims at determining the extent of inhibition of PTPs, e.g. of PTP1B, SHP-1, SHP-2 or GLEPP-1 in the presence of a test compound of formula (I). The inhibition is illustrated by IC50 values which denote the concentration of test compound necessary to achieve an inhibition of 50% of said PTP's using the following concentration of the PTP substrate DiFMUP: • 5 μM DiFMUP for PTP1B; • 20 […] DiFMUP for SHP-1 and SHP-2; • 30 μM DiFMUP for GLEPP-1. a) PTPs Cloning […]
(§2) Assays were performed in a 96 well plate format, using the catalytic core of a human recombinant PTP as the enzyme and 6,8-DiFluoro-4-MethylUmbelliferyl Phosphate (DiFMUP, Molecular Probes, D-6567) as a substrate. […] The reaction ran for 30 minutes at room temperature before reading the fluorescence intensity (integral or intensity) on a Perkin-Elmer Victor 2 spectrofluorimeter (excitation of 6,8-difluoro-7-hydroxy coumarin is at 355 nm, the emission at 460 nm, for 0.1 s). The percentage of inhibition is determined by measuring the relative fluorescence ion absence of a test compound (PTP inhibitor), i.e. with the solvent alone (5% DMSO). The IC50 values for inhibition were determined in triplicates.

A further assay addresses T2, SHP-1 (Homo sapiens, UniProt P29350).
T2 construct: using the catalytic core of a human recombinant PTP as the enzyme
T2 sequence (P29350 244-515 limits assumed): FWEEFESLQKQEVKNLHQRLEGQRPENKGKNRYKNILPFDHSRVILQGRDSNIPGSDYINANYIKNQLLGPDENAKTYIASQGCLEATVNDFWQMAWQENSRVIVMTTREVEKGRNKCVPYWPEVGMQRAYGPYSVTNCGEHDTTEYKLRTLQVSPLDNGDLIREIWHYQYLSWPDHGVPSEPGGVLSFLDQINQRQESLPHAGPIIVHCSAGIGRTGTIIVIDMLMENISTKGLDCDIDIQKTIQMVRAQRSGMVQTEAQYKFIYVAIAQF
In words: PTP Enzyme Assay (DiFMUP), SHP-1. Type of assay: biochemical. The note with it: 20 λM DiFMUP; read-out: IC50 value in respect of SHP-1. As to the method:
as §1, §2

The next assay has as its target T3, GLEPP-1 (Homo sapiens, UniProt Q16827).
T3 construct: using the catalytic core of a human recombinant PTP as the enzyme
T3 sequence (Q16827 938-1195 limits assumed): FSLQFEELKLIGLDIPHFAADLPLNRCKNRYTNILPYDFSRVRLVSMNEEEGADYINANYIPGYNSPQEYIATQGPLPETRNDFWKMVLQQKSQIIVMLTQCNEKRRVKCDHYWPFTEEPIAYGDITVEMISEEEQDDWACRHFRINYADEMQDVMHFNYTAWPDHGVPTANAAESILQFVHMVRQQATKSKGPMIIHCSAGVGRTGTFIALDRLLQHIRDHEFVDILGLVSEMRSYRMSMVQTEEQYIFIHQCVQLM
In words: PTP Enzyme Assay (DiFMUP), GLEPP-1. To be noted: 30 μM DiFMUP; read-out: IC50 value in respect of GLEPP-1. The assay is classed as biochemical. As to the method:
as §1, §2

Another assay concerns db/db mice. Kind of assay: In vivo assay in db/db mice (postprandial glycemia). To be noted: 4 hrs after drug administration. As to the method: The following assay aims at determining the anti-diabetic effect of the test compounds of formula (I) in a model of postprandial glycemia in db/db mice, in vivo.
A total of 24 db/db mice (about 8-9 weeks; obtained from IFFACREDO, l'Arbreste, France) were fasted during 20 hours.
4 groups, each consisting of 6 animals were formed:
Group 1: The animals were administered (per os) a dose of […] of vehicle.
Group 2: The animals were administered (per os) a dose of 20 mg/kg of the test compound according to formula (I).
Group 3: The animals were administered (per os) a dose of 100 mg/kg of the test compound according to formula (I).
Group 4: The animals were administered (per os) a dose of 200 mg/kg of the test compound according to formula (I).
After oral administration of the compounds of formula (I) solubilized or suspended in CarboxyMethylCellulose (0.5%), Tween 20 (0.25%) and water as vehicle, the animals had access to commercial food (D04, UAR, Villemoisson/Orge, France) ad libitum. The diabetic state of the mice was verified by determining the blood glucose level before drug administration. Blood glucose and serum insulin levels were then determined 4 hrs after drug administration.
The determination of the blood glucose level was performed using a glucometer (Precision Q.I.D., Medisense, Abbot, ref. 212.62.31).
The determination of the Insulin level was performed using an ELISA kit (Crystal CHEM, Ref. INSK R020).
Changes in blood glucose and serum insulin of drug treated mice were expressed as a percentage of control (group 1: vehicle treated mice).

Another assay concerns the target T4, PTP1B (Homo sapiens, UniProt P18031).
T4 construct: The cloning and expression of the catalytic domain of PTPIB, may be performed as described in J. Biol. Chem. 2000; made in house
T4 sequence (P18031 3-277 limits assumed): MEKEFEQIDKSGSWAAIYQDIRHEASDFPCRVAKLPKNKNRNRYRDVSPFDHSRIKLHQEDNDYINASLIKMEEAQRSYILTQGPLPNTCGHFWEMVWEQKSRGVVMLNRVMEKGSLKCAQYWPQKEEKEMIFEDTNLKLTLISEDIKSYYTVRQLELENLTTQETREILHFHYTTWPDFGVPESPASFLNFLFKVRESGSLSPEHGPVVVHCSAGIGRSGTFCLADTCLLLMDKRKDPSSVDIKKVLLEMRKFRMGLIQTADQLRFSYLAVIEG
Kind of assay: PTP Enzyme Assay (DiFMUP), PTP1B. The note with it: 5 μM DiFMUP; read-out: IC50 value in respect of PTP1B. Type of assay: biochemical. As to the method: The PTP Enzyme Assay aims at determining the extent of inhibition of PTPs, e.g. of PTP1B, SHP-1, SHP-2 or GLEPP-1 in the presence of a test compound of formula (I). The inhibition is illustrated by IC50 values which denote the concentration of test compound necessary to achieve an inhibition of 50% of said PTP's using the following concentration of the PTP substrate DiFMUP: • 5 μM DiFMUP for PTP1B; • 20 […] DiFMUP for SHP-1 and SHP-2; • 30 μM DiFMUP for GLEPP-1. a) PTPs Cloning
The cloning and expression of the catalytic domain of PTPIB, may be performed as described in J. Biol. Chem. 2000, 275(13), pp 9792-9796. […]
as §2

Setting [1] is: Group 2: db/db mice, per os 20 mg/kg.
Setting [2] is: Group 3: db/db mice, per os 100 mg/kg.
[3] abbreviates: Group 4: db/db mice, per os 200 mg/kg.

pIC50: −log10 of the molar value.

In the case of `CCCCCCCCCCCCCCCNC(=O)c1ccc(CN(Cc2ccc(C(F)(F)F)cc2)C(=O)C(=O)O)cc1` [Example 4, oxo{{4-[(pentadecylamino)carbonyl]benzyl}[4-(trifluoromethyl)benzyl]amino}acetic acid], the pIC50 is 5.85 at SHP-2, 6.00 on SHP-1 and 6.30 on GLEPP-1.
In the case of `CCCCCCCCCCCCNC(=O)c1ccc(CN(Cc2ccc(C(F)(F)F)cc2)C(=O)C(=O)O)cc1` [Example 10, {{4-[(dodecylamino)carbonyl]benzyl}[4-(trifluoromethyl)benzyl]amino}(oxo)acetic acid], the pIC50 on SHP-2 was 5.57; on SHP-1, 5.62; at GLEPP-1, 5.85; at PTP1B it was 5.65. In addition, the “Decrease in blood glucose” value was 17 percentage of control in the assay on db/db mice (setting [1]), 42 percentage of control in the assay with db/db mice (setting [2]) and 48 percentage of control in the assay on db/db mice (setting [3]). Also, the “Decrease in serum insulin” value with db/db mice (setting [1]) was −2 percentage of control; in the assay with db/db mice (setting [2]), 66 percentage of control; with db/db mice (setting [3]), 89 percentage of control.

By pIC50 is commonly meant the negative decadic logarithm of the IC50, by convention in mol/L.

(Values after US7592477B2, “Substituted methylene amide derivatives as modulators of protein tyrosine phosphatases (PTPs)” (Laboratoires Serono SA, priority 2002, dated 2009).)
